Values of other authors in patent publication US20040116403A1, “Superoxide dismutase mimics for the treatment of ocular disorders and diseases” (priority 2002, published 2004).

Experiments:
IL-6 and MIP-2 = settings: rat stroke model; administration after induction of cerebral ischemia
[1] = rat stroke model; given either before or after induction of cerebral ischemia

Row | Compound | expression of pro-inflammatory proteins such as IL-6 and MIP-2 (IL-6 and MIP-2) | infarct volume [1]
1 | CCn1cc[n+](CC)c1C1=C2C=CC3=[N+]2[Mn]24[n]5c1ccc5C(c1n(CC)cc[n+]1CC)=C1C=CC(=[N+]12)C(c1n(CC)cc[n+]1CC)=c1ccc([n]14)=C3c1n(CC)cc[n+]1CC [Compound 1] | attenuation of the increased expression of pro-inflammatory proteins | –
2 | CC[n+]1ccccc1C1=C2C=CC3=[N+]2[Mn]24[n]5c1ccc5C(c1cccc[n+]1CC)=C1C=CC(=[N+]12)C(c1cccc[n+]1CC)=c1ccc([n]14)=C3c1cccc[n+]1CC [Compound 2] | – | reduces infarct volume
